The assay addresses T1, Rab5 (Homo sapiens, UniProt P20339).
T1 sequence (P20339 1-215): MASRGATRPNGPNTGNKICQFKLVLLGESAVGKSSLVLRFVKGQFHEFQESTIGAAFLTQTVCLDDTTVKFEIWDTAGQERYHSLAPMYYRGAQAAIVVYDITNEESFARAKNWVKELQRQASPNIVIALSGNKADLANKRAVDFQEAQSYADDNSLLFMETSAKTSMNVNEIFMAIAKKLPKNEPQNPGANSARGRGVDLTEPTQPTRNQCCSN
Briefly: intrinsic fluorescence titration. Format: binding.

Structures are written as SMILES.

A word on the Kd: it is the free concentration of one partner at which half of the binding sites on the other are occupied at equilibrium, for simple one-to-one binding. Read a low Kd as higher affinity. Take `C=C1CC[C@@H]2[C@](C)(CO[C@@H]3O[C@H](CO)[C@@H](O)[C@H](O)[C@H]3O)CCC[C@@]2(C)[C@@H]1CCC1=CCOC1=O` [NAP, Neoandrographolide]: the Kd turned out to be 350 ± 30 nM.

The values are drawn from article PMC7734235 (Computational and Structural Biotechnology Journal, 2020).
